According to publication PMC13372822 (The EMBO Journal, 2026):

Tests used:
[1] = biological target: T1, SUCR1 mutants (variant named in the endpoint) (Homo sapiens, UniProt Q9BXA5, F285A/L102F/Y248F); experiment: Calcium mobilization assay, SUCR1 mutants in HEK293 stably expressing Gα16; type: cell-based; conditions: SUCR1 L102F-F285A-Y248F
T1 construct: The full-length human SUCR1 and mutations were fused after the HA signal peptide and Flag tag; HA signal peptide (N); Flag (N); expressed in transfected cells; host or cells: HEK293 stably expressing Gα16 (pcDNA6.0, transient electroporation)
T1 sequence (Q9BXA5 1-334 L102F/Y248F/F285A): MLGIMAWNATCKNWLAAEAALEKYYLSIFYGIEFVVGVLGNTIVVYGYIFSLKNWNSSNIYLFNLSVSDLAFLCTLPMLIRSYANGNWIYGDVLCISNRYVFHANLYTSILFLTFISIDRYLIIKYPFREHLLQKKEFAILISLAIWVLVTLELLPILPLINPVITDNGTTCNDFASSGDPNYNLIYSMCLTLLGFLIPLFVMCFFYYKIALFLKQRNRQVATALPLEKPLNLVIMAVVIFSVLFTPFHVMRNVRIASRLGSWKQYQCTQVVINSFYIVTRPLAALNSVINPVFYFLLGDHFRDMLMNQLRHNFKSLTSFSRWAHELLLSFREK

[2] = test system: OXGR1 mutants (variant named in the endpoint); experiment: Calcium mobilization assay, OXGR1 mutants in HEK293; conditions: for Emax: each ligand normalized to WT (100%);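 on all read-outs here: human OXGR1 variants transiently expressed in HEK293 cells, with intracellular calcium read out by Fluo-4 AM fluorescence, measured 24 h after transfection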
Experimental: The full-length human SUCR1 and mutations were fused after the HA signal peptide and Flag tag. The constructs were cloned into pcDNA6.0 vector for HEK293 system.
HEK293 cells were obtained from ATCC (Manassas, VA, USA) and cultured in DMEM supplemented with 10% (v/v) FBS, 100 mg/L penicillin, and 100 mg/L streptomycin in 5% CO2 at 37 °C. For transient transfection, ~2.5 × 10^6 cells were mixed with 2 µg plasmids in 200 µL transfection buffer, and electroporation was carried out with a Scientz-2C electroporation apparatus (Scientz Biotech, Ningbo, China). The experiments were carried out 24 h after transfection. HEK293 cell lines stably expressing Gα16 were constructed by our laboratory.
For OXGR1, plasmids were transfected into HEK293 (other receptors were transfected into HEK293 stably expressing Gα16) and seeded at a density of 4 × 10^4 per well into 96-well culture plates and incubated for 24 h at 37 °C in 5% CO2. The next day, Cells were incubated with 2 μM/L Fluo-4 AM in HBSS supplemented with 5.6 mM/L D-glucose and 250 μM/L sulfinpyrazone at 37 °C for 45 min. […] Three independent measurements were repeated, i.e., three different transfections, with three technical replicates performed for each experiment. EC50 and Emax values for each curve were calculated by Prism 8.0 software (GraphPad Software).

Question: Which results are given for O=C(O)CCC(=O)O [SUC, succinate]?
Answer: EC50 [1]: 2200 ± 220 µM; EC50 ([2]; OXGR1 D185A): > 1000 µM; Emax ([2]; OXGR1 D185A): -4.4± 9 WT%; EC50 ([2]; OXGR1 E97A): 1580 ± 260 µM; Emax ([2]; OXGR1 E97A): 74± 6 WT%; EC50 ([2]; OXGR1 F113A): > 1000 µM; Emax ([2]; OXGR1 F113A): -0.39± 2 WT%; EC50 ([2]; OXGR1 F113W): 760 ± 210 µM; increase in potency by F113W mutation ([2]; OXGR1 F113W versus WT): no significant change; Emax ([2]; OXGR1 F113W): 82± 5 WT%; EC50 ([2]; OXGR1 F257A): > 10000 µM; Emax ([2]; OXGR1 F257A): 29± 1 WT%; EC50 ([2]; OXGR1 F257Y): 81 ± 4 µM; Emax ([2]; OXGR1 F257Y): 76± 2 WT%; EC50 ([2]; OXGR1 H114A): 3600 ± 600 µM; Emax ([2]; OXGR1 H114A): 84± 4 WT%; EC50 ([2]; OXGR1 H114L): > 1000 µM; Emax ([2]; OXGR1 H114L): 1.9± 3 WT%; EC50 ([2]; OXGR1 H281A): 4500 ± 1300 µM; Emax ([2]; OXGR1 H281A): 87±10 WT%; EC50 ([2]; OXGR1 I172A): > 1000 µM; Emax ([2]; OXGR1 I172A): 0.013± 2 WT%; EC50 ([2]; OXGR1 L36A): > 1000 µM; Emax ([2]; OXGR1 L36A): 6.1± 0.2 WT%; EC50 ([2]; OXGR1 L89A): > 1000 µM; Emax ([2]; OXGR1 L89A): 2.8± 0.9 WT%; EC50 ([2]; OXGR1 L186A): > 1000 µM; Emax ([2]; OXGR1 L186A): -0.43± 1 WT%; EC50 ([2]; OXGR1 L186F): 770 ± 60 µM; Emax ([2]; OXGR1 L186F): 75± 5 WT%; EC50 ([2]; OXGR1 L299P): > 1000 µM; Emax ([2]; OXGR1 L299P): 10.5±3 WT%; activation of OXGR1 L299P ([2]; OXGR1 L299P, in words): abolished; EC50 ([2]; OXGR1 M168I): 1100 ± 60 µM; Emax ([2]; OXGR1 M168I): 88± 2 WT%; EC50 ([2]; OXGR1 N28A): 300 ± 50 µM; Emax ([2]; OXGR1 N28A): 94± 0.8 WT%; EC50 ([2]; OXGR1 R110A): > 1000 µM; Emax ([2]; OXGR1 R110A): 7.0± 1 WT%; EC50 ([2]; OXGR1 R110E): > 1000 µM; Emax ([2]; OXGR1 R110E): 8.9± 5 WT%; EC50 ([2]; OXGR1 R110Q): > 1000 µM; Emax ([2]; OXGR1 R110Q): 1.7± 2 WT%; EC50 ([2]; OXGR1 R177A): 370 ± 70 µM; Emax ([2]; OXGR1 R177A): 89± 6 WT%; EC50 ([2]; OXGR1 R264A): > 10000 µM; Emax ([2]; OXGR1 R264A): 57± 5 WT%; EC50 ([2]; OXGR1 R268A): > 1000 µM; Emax ([2]; OXGR1 R268A): 6.3± 4 WT%; EC50 ([2]; OXGR1 R288A): > 1000 µM; EC50 ([2]; OXGR1 R288E): > 1000 µM; Emax ([2]; OXGR1 R288E): -16±0.6 WT%; EC50 ([2]; OXGR1 R288Q): > 1000 µM; EC50 ([2]; OXGR1 Y40A): > 1000 µM; Emax ([2]; OXGR1 Y40A): -1.5± 2 WT%; EC50 ([2]; OXGR1 Y93A): > 1000 µM; Emax ([2]; OXGR1 Y93A): 5.5± 3 WT%; EC50 ([2]; OXGR1 Y284A): > 1000 µM; Emax ([2]; OXGR1 Y284A): 4.1±2 WT%
